pIC50: −log10 of the molar value.
How the values were obtained:
[1] = molecular target: T1, E. multilocularis DNA damage-inducible 1 protein (EmuDdi1) (Echinococcus multilocularis, UniProt A0A068Y9Y4); experiment: fluorogenic aspartyl protease assay; assay type: biochemical
T1 sequence (A0A068Y9Y4 1-390): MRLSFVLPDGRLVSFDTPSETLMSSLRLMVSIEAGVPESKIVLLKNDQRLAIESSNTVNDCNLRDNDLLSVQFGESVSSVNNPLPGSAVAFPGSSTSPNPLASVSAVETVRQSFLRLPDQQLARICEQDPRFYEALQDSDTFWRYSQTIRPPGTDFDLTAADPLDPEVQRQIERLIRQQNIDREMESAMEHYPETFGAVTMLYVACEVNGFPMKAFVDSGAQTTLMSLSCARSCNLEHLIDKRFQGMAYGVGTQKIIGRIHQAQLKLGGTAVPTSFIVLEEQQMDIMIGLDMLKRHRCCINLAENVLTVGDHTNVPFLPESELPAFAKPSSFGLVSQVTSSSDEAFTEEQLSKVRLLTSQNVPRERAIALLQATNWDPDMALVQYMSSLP

[2] = molecular target: T1, E. multilocularis DNA damage-inducible 1 protein (EmuDdi1); experiment: fluorogenic aspartyl protease assay, single concentration; assay type: biochemical; conditions: read-out: % inhibition at 40 μM

| Structure (SMILES) | pIC50 [1] | inhibition at 40 µM [2] [%] |
| --- | --- | --- |
| Cc1c(O)cccc1C(=O)N[C@@H](CSc1ccccc1)[C@H](O)CN1C[C@H]2CCCC[C@H]2C[C@H]1C(=O)NC(C)(C)C [NFV, nelfinavir] | 4.34 |  |
| CC(C)(C)NC(=O)[C@@H]1C[C@@H]2CCCC[C@@H]2CN1C[C@@H](O)[C@H](Cc1ccccc1)NC(=O)[C@H](CC(N)=O)NC(=O)c1ccc2ccccc2n1 [SQV, saquinavir] |  | ~40 |

Reference: PMC9294487 (eBioMedicine, 2022)
